Experiments:
SARS-CoV-2 S1 subunit = biological target: T1, SARS-CoV-2 S1 subunit (Severe acute respiratory syndrome coronavirus 2, UniProt P0DTC2); assay: biochemical; format: binding
T1 construct: 50 μL of S1-subunit protein solution (0.1 mg·mL^−1, Genscript Z03501); purchased Genscript Z03501

[1] = tested on: UV-inactivated SARS-CoV-2 virions; format: binding
[2] = biological target: T2, SARS-CoV-2 spike S1 subunit (Severe acute respiratory syndrome coronavirus 2, UniProt P0DTC2); format: binding
T2 construct: 50 μL of S1-subunit protein solution (0.1 mg·mL^−1, Genscript Z03501); purchased Genscript Z03501

[3] = tested on: VSV-SARS-CoV-2 (SARS-CoV-2 spike pseudotyped VSV); format: cell-based

SMILES | Kd (SARS-CoV-2 S1 subunit) | kon (SARS-CoV-2 S1 subunit; read-out: association rate (kon)) | reduction in the binding frequency (BF) [1] | binding probability (BP) in competition assay [2] | reduction of VSV-SARS-CoV-2 infectivity [3]
CC(=O)N[C@H]1C([C@H](O)[C@H](O)COC(C)=O)O[C@](O)(C(=O)O)C[C@H]1O (some centres unmarked) [Compound 9-AcSA, 9-O-acetyl-sialic acid] | 5.7 ± 5 µM | 42000 M⁻¹ s⁻¹ | 20-30% | significantly lower binding probability | –
CC(=O)N[C@H]1[C@H]([C@H](O)[C@H](O)COC(C)=O)OC(O)(C(=O)O)C[C@@H]1O (some centres unmarked) [Compound 9-AcSA, 9-O-acetyl-sialic acid] | – | – | – | – | did not significantly reduce

— patent US20250134921A1, “[…] ACID GLY[…] THEIR USES FOR TREATING INFECTIOUS DISEASES” (priority 2021, published 2025)
